This is an account of results in patent US9890194B2, “Epitope and its use” (W[…] BADAŃEIT+ SP. Z O.O., priority 2012, dated 2018).

Experiment [1] concerns antibodies present in umbilical blood sera 1H-9H (IgG). The experiment in a line: ELISA of peptides synthesized on HPM-pins with a mixture of 9 umbilical blood sera (1H-9H). In kind it is binding, human. As to conditions: mixture of umbilical sera 1H-9H; 29 overlapping twelve amino-acid peptides of Table 1 on HPM-pins. An excerpt: Peptides representing the bioinformatically predicted regions were synthesized using an NCP kit with 96 hydroxypropylmethacrylate (HPM) pins (MIMOTOPES, Clayton, Victoria, Australia) according to the manufacturer's specifications (Carter, J.M. (1994) An epitope mapping of a protein using the Geysen (PEPSCAN) procedure. Methods Mol Biol 36: 207-223). As the sixth, control, peptide we synthesised a fragment corresponding to the N-terminal region of ompC (AEVYNKDGNKLD-pin (SEQ ID NO: 12)).
After the completed synthesis, we performed initial reactivity tests for the individual peptides, using a standard ELISA test. The ELISA was performed in a mixture of 9 different umbilical blood sera (1H-9H) according to the following scheme: • a. Pin equilibration in TBS-T. • b. Blocking of free sites on the pins using 1% BSA in TBS-T • c. Incubation with umbilical sera at a dilution of 1:500 in a solution of 1% BSA in TBS-T buffer • d. Rinsing with TBS-T buffer • e. Incubation with secondary antibodies, conjugated Anti-Human IgG (Fc)-AP (Promega) • f. Rinsing with TBS-T • g. Reaction of AP with the substrate pNPP (p-Nitrophenyl Phosphate, Sigma) and absorbance measurement at 405 nm • h. Dissociation of proteins/antibodies from peptides synthesized on HPM-pins. […]
In general terms: An ELISA detects its analyte on a solid surface through an enzyme-linked reagent.

In experiment [2] the test system is antibodies present in human umbilical blood sera. In words: Immunological activity of truncated and substituted peptides derived from RYDERY with umbilical serum. In kind it is binding. The settings on record: FIG. 4. An excerpt: Unexpectedly it was shown that the immunological activity of the RYDERY peptide (SEQ ID NO: 2) is not affected by the removal of amino-acids in positions P+1 and P+2, nor in P−1, […]. The removal of amino-acids in positions P1 or P6, and in the subsequent positions (P2, P3 or P5, P4) caused a complete loss of activity. Likewise, a loss of immunological activity was caused by an exchange of residues at positions P1, P2 and P5. The latter amino-acids must remain unchanged in the final form of the peptide vaccine. Positions P3, P4 and P6 are less restrictive. In this case native amino-acids may be substituted by a series of other residues without any significant loss of immunological activity (FIG. 4). This property of the epitope facilitates the synthesis of a peptide less susceptible to enzymatic hydrolysis, and a higher antigenicity.
Furthermore, it was unexpectedly shown that an alteration of amino-acid D or E for Q yields an increased reactivity with umbilical serum (FIG. 5).

Turning to RYDERY, the “binding of antibodies in umbilical sera by loop V peptides” value in experiment [1] is given as “shortest active portion of the epitope”.

Take YDERY: in experiment [2], the “immunological activity of peptides derived from RYDERY (removal or exchange of residues)” value was “no activity”.
